Measured values: ChEMBL document CHEMBL1152590, “Computational modeling of novel inhibitors targeting the Akt pleckstrin homology domain” (Bioorg Med Chem, 2009)

Test system: Caco-2
Test: Permeability across human Caco-2 cells

CN/C(=N/CCSCc1nc[nH]c1C)NC#N [CIMETIDINE]
logPapp: -5.89

Clc1cccc(Cl)c1N=C1NCCN1 [CLONIDINE]
logPapp: -4.59

NCCc1ccc(O)c(O)c1 [DOPAMINE]
logPapp: -5.03

C=CCOc1ccccc1OCC(O)CNC(C)C (stereo unspecified) [OXPRENOLOL]
logPapp: -4.68

CNC[C@H](O)c1ccc(O)c(O)c1 [EPINEPHRINE]
logPapp: -6.02

CCOC(=O)[C@H](CCc1ccccc1)N[C@@H](C)C(=O)N1CCC[C@H]1C(=O)O
logPapp: -5.64

CNC(=C[N+](=O)[O-])NCCSCc1ccc(CN(C)C)o1 [RANITIDINE]
logPapp: -6.31

Cn1c(=O)c2[nH]cnc2n(C)c1=O.O [THEOPHYLLINE]
logPapp: -4.35

CN1CCC[C@H]1c1cccnc1 [NICOTINE]
logPapp: -4.71

CC(=O)[C@H]1CC[C@H]2[C@@H]3CCC4=CC(=O)CC[C@]4(C)[C@H]3CC[C@]12C [PROGESTERONE]
logPapp: -4.37

O=C(O)c1ccccc1O [SALICYLIC ACID]
logPapp: -4.79

O=C(O)c1cc(/N=N/c2ccc(S(=O)(=O)Nc3ccccn3)cc2)ccc1O [SULFASALAZINE]
logPapp: -6.33

c1ccc(C2(N3CCCCC3)CCCCC2)cc1 [PHENCYCLIDINE]
logPapp: -4.61

CC(C)(C)NC[C@H](O)COc1nsnc1N1CCOCC1 [TIMOLOL]
logPapp: -4.85

CCCc1nc2c(C)cc(-c3nc4ccccc4n3C)cc2n1Cc1ccc(-c2ccccc2C(=O)O)cc1
logPapp: -4.82

CC(C)NCC(O)COc1cccc2[nH]ccc12 (stereo unspecified) [PINDOLOL]
logPapp: -4.78
